According to patent US12485191B2, “Radiopharmaceuticals and methods of use thereof” (BOARD OF REGENTS OF THE UNIVERSITY OF NEBRASKA, priority 2017, dated 2025):
Marks after values point to notes of the source that are not given here.

Experiments:
[1] = Distribution coefficient (Log D7.4) of the conjugates; assay type: physicochemical
Method: Distribution Coefficient (Log D7.4) of the Conjugates The distribution coefficient was determined for each ^177Lu-labeled conjugate. In a 1.5 mL centrifuge tube, 0.5 mL of 1-octanol was added to 0.5 mL of PBS (pH 7.4) containing the radiolabeled peptide (500,000 cpm). The solution was vigorously vortexed for 2 minutes at room temperature and subsequently centrifuged to yield two immiscible layers. The radioactivity of the aliquots (100 μL) taken from each layer were quantified by the gamma counter and the Log D7.4 for each conjugates was calculated.

PC-3 tumor [2] = settings: mouse, in vivo
PC-3 cells [3] = assay: Efflux study in PC-3 cells; assay type: cell-based, human; settings: over a 24 hour time period
PC-3 tumor [4] = assay: Autoradiography of SDS-PAGE of tissue lysates from PC-3 tumor bearing mice; assay type: in vivo; settings: liver, pancreas, kidney at 24 and 72 hours post-injection
CatB = CatB (Homo sapiens, UniProt P07858); assay: CatB inhibition of GRPR-targeted agents; assay type: biochemical
Method: The Inhibition of Cathepsin B Activity by the Conjugates The phosphate buffer (0.1 M, pH=5.8) containing EDTA (1 mM), DTT (2.7 mM), and Brij®35 (0.03%) was prepared before the assay. […] The solution of cathepsin B (human Liver) in assay buffer (50 μL, 0.544 nM) was added to the mixture which was further incubated at 37° C. for 20 minutes. The fluorescence of the liberated aminomethylcoumarin at 460 nM using 355 nm excitation was measured and the IC50 of the cathepsin B inhibition versus the samples without the inhibitor was determined by nonlinear regression using GraphPad Prism 5.

PC-3 cells [5] = assay: Cellular adduct study (SDS-PAGE of cellular lysates); assay type: cell-based, human
HT-29 cells [6] = assay: HT-29 cell efflux study; assay type: cell-based, human; settings: at 24 hours
Method: The HT-29 Cell Efflux Studies
The ^177Lu radioconjugate was added to a sterilized 1.5 mL microcentrifuge tube containing HT-29 cells ˜1×10^6) suspended in 300 μL of cell culture medium, yielding a final radioactivity concentration of 100,000 cpm/100 μL, and was incubated for 2 hours at 37° C. After the removal of the culture medium, the cells were washed with fresh medium (5×500 μL) followed by the addition of 500 μL of fresh medium for the efflux assay. At 0, 1, 2, 4, 8, and 24 hour time interval, fresh medium (500 μL) was added to the tube to replace the old medium which was harvested for quantitative analysis of the effluxed radioactivity using a gamma counter. The cells were lysed with a 10% aqueous SDS solution at 24 hour to quantify the remaining internalized radioactivity. The effluxed fraction is expressed as a percentage of the total radioactivity added to the tube, which is the sum of the effluxed and internalized fractions obtained from the study.

HT-29 cells [7] = assay: Intracellular trapping of the radioconjugates in living HT-29 cells (GPC, SDS-PAGE); assay type: cell-based, human; settings: for intracellular adduct formation (in words): live HT-29 cells, GPC and SDS-PAGE
Method: Intracellular Trapping of the Radioconjugates in Living HT-29 Cells
To the HT-29 cells (1×10^6/well) seeded in 6-well plates was added the radioconjugates (0.74 MBq, 20 μCi) in 1 mL of cell culture medium. The cells were incubated at 37° C. for 4 hours and the medium was removed by vacuum followed washing with PBS (2×2 mL). The cells (˜3×10^6) were trypsinized and combined in microcentrifuge. The RIPA buffer (100 μL) containing Halttmprotease inhibitor (100×, 1 μL) was added to the cell pellet and vigorously vortexed for 1 minute. The suspension was incubated on ice for 15 minutes and centrifuged to remove the pellet. The supernatant (80 μL) was equally divided into two portions. The first portion (40 μL) was directly analyzed by radioactive-GPC with a flow rate of 0.6 mL/minute (40% ACN in PBS containing 0.1% sodium azide). The second portion (40 μL) of the cell lysate was mixed with Novex Tris-Glycine SDS sample buffer (2×) (40 μL) and incubated for another 15 minutes. The mixture (30 μL) was loaded onto a Novex 16% tris-glycine gel and analyzed by SDS-PAGE at 110 V for 90 minutes. The autoradiograph of the SDS-PAGE was performed as described above.

[8] = target: T1, cathepsin B (human Liver) (Homo sapiens, UniProt P07858); assay: Inhibition constant (Ki) of the compounds to cathepsin B; assay type: biochemical
T1 construct: from tissue; host or cells: human liver
Method: Determination of the Km and Vmax of Cathepsin B for Z-Arg-Arg-AMC
The solution of cathepsin B (human Liver) (50 μL, 2 nM) in assay buffer used above was mixed with 50 μL of solution of substrate Z-Arg-Arg-AMC in the assay buffer at different concentrations ([S]) (25 μM, 50 μM, 100 μM, 500 μM and 1 mM). The mixture was incubated at 37° C. and the fluorescence of the liberated aminomethylcoumarin at 460 nM using 355 nm excitation was measured at predetermined time points (0, 2, 4, 6, 8, and 10 minutes). The fluorescence intensity was plotted versus time and the reaction rates (v0) were calculated as the slope of the trend lines obtained by liner regression. Km and maximum reaction rate (Vmax-obs) was determined from the equation v0=Vmax[S]/(Km+[S]) and solved by nonlinear regression using GraphPad Prism 5. All measurements were in biological triplicate.
Determination of the Inhibition Constant (Ki) of the Compounds to Cathepsin B
The cathepsin B (human Liver) in assay buffer (25 μL) was mixed with the conjugate (25 μL) in 96-well plate. After the solution was mixed, the Z-Arg-Arg-AMC in assay buffer (50 μL) was added to the well, yielding a final cathepsin B concentration of 1 nM, conjugate concentration ([C]) of 15 nM or 5 μM, and substrate concentration ([S]) of 25 μM, 50 μM, 100 μM, 500 μM and 1 mM. The mixture was incubated at 37° C. and the fluorescence of the liberated aminomethylcoumarin at 460 nM using 355 nm excitation was measured at predetermined time points (0, 2, 4, 6, 8, and 10 minutes). The fluorescence intensity was plotted versus time with observed reaction rates (v0-obs) calculated as the slope of the trend lines obtained by liner regression. The observed rate constant (Kobs) and observed maximum reaction rate (Vmax-obs) was determined from the equation v0-obs=Vmax-obs [S]/(Kobs+[S]) and solved by nonlinear regression using GraphPad Prism 5. The Ki was calculated from the equation Kobs=Km (1+[C]/Ki). All measurements were in biological triplicate.

[9] = Distribution coefficient (Log D7.4) of the conjugates; assay type: physicochemical; settings: determined by HPLC analysis
[10] = target: T1, cathepsin B (human Liver); assay: Cathepsin B binding of the radioconjugates (autoradiographic SDS-PAGE); settings: 2 hours
Method: Cathepsin B Binding of the Radioconjugates This procedure uses the same solutions as described above. The cathepsin B (human Liver)(3 nM, 10 μL) in storing buffer was added to the solution of the radioconjugate (500,000 cpm) in 40 μL of binding assay buffer and kept on ice for 2 hours. An aliquot (25 μL) of the solution was mixed with Novex Tris-Glycine SDS sample buffer (2×) (25 μL) and incubated for a further 10 minutes. The mixtures (20 μL) were loaded onto a Novex 16% tris-glycine gel and analyzed by SDS-PAGE at 110 V for 90 minutes. The autoradiograph of the SDS-PAGE was performed as described above.

| inhibition of catB (in words) (CatB) | logD7.4 [9] | SMILES | logD7.4 ([1]; GRPR-targeted agents) | tumor retention (PC-3 tumor [2]) | reduction in efflux compared to the analogous control (PC-3 cells [3]) | adduct formation in tissue lysates (in words) (PC-3 tumor [4]) | cellular adducts (in words) (PC-3 cells [5]) | efflux (HT-29 cells [6]) | intracellular adduct formation (in words) (HT-29 cells [7]) | CatB K1 [8] | other results |
| --- | --- | --- | --- | --- | --- | --- | --- | --- | --- | --- | --- |
| low nanomolar inhibition | – | CSCC[C@H](NC(=O)[C@H](CC(C)C)NC(=O)[C@H](Cc1c[nH]cn1)NC(=O)CNC(=O)[C@@H](NC(=O)[C@H](C)NC(=O)[C@H](Cc1c[nH]c2ccccc12)NC(=O)[C@H](CCC(N)=O)NC(=O)CCOCCOCCOCCOCCNC(=O)[C@H](Cc1cn(CCNC(=O)[C@H](CCCNC(=N)N)NC(=O)[C@H](CC(C)C)NC(=O)C2OC2C(=O)O)nn1)NC(=O)CN1CCN(CC(=O)O)CCN(CC(=O)O)CCN(CC(=O)O)CC1)C(C)C)C(N)=O (stereo partly shown) [^177Lu-A-AG, metal not drawn] | −3.1 ± 0.1 | 62% | ~20% | formation of adducts | cellular adducts are observed | – | – | – | – |
| – | – | Cc1cc(O)cc(C)c1C[C@H](NC(=O)[C@@H]1CCCN1C(=O)[C@H](CCCNC(=N)N)NC(=O)[C@H](CCCNC(=N)N)N(C)C(=O)[C@@H]1CCCN1C(=O)[C@H](CCCCN)NC(=O)CCNC(=O)[C@H](Cc1cn(CCOCCOCCOCC(=O)NCCCC[C@H](NC(=O)[C@H](Cc2ccccc2)NC(=O)OCc2ccccc2)C(=O)NCCc2ccccc2)nn1)NC(=O)CN1CCN(CC(=O)O)CCN(CC(=O)O)CCN(CC(=O)O)CC1)C(=O)N[C@H](C(=O)N[C@@H](CC(C)C)C(=O)O)C(C)(C)C [Compound 3a] | – | – | – | – | – | 66% | no adduct formation | ni | logD7.4 ([1]; determined by radiometric analysis, 177Lu-labeled conjugate): −1.56 ± 0.07^b; Ki and inhibition IC50 to CatB (in words) [8]: did not demonstrate any inhibition |
| – | 2.08 ± 0.08^a | Cc1cc(C)c(C(=O)OCC(=O)[C@H](CCCCN)NC(=O)[C@H](Cc2ccccc2)NC(=O)OCc2ccccc2)c(C)c1 [Compound 1a] | – | – | – | – | – | – | – | – | Ki ([8]; read-out: CatB K1): 23 ± 1 nM |
| – | – | Cc1cc(C)c(C(=O)OCC(=O)[C@H](CCCCNC(=O)COCCOCCOCCn2cc(C[C@H](NC(=O)CN3CCN(CC(=O)O)CCN(CC(=O)O)CCN(CC(=O)O)CC3)C(=O)NCCC(=O)N[C@@H](CCCCN)C(=O)N3CCC[C@H]3C(=O)N(C)[C@@H](CCCNC(=N)N)C(=O)N[C@@H](CCCNC(=N)N)C(=O)N3CCC[C@H]3C(=O)N[C@@H](Cc3c(C)cc(O)cc3C)C(=O)N[C@H](C(=O)N[C@@H](CC(C)C)C(=O)O)C(C)(C)C)nn2)NC(=O)[C@H](Cc2ccccc2)NC(=O)OCc2ccccc2)c(C)c1 [Compound 2c] | – | – | – | – | – | 36% | multiple macromolecule adducts formed | – | percentage of macromolecular adducts with respect to total intracellular activity (HT-29 cells [7]; GPC profile, HT-29 cells, 4 hours incubation): 61%; adduct formation with CatB (in words) [10]: adduct formation |
| low nanomolar inhibition | – | CC(C)C[C@H](NC(=O)C1OC1C(=O)O)C(=O)N[C@@H](CCCNC(=N)N)C(=O)NCCn1cc(C[C@H](NC(=O)CN2CCN(CC(=O)O)CCN(CC(=O)O)CCN(CC(=O)O)CC2)C(=O)NCCOCCOCCOCCOCCC(=O)N[C@H](Cc2ccccc2)C(=O)N[C@@H](CCC(N)=O)C(=O)N[C@@H](Cc2c[nH]c3ccccc23)C(=O)N[C@@H](C)C(=O)N[C@H](C(=O)NCC(=O)N[C@@H](Cc2c[nH]cn2)C(=O)N[C@@H](CC(C)C)[C@@H](O)CC(=O)N[C@H](CC(C)C)C(N)=O)C(C)C)nn1 (stereo partly shown) [^177Lu-A-ANT, metal not drawn] | −2.3 ± 0.2 | 32% | 5% | formation of adducts | cellular adducts are observed | – | – | – | – |
| – | 2.51 ± 0.02^a | NCCCCC(NC(=O)C(Cc1ccccc1)NC(=O)OCc1ccccc1)C(=O)NCCc1ccccc1 (stereo not shown) [Compound 1b] | – | – | – | – | – | – | – | ni^c | – |
